Measured values from patent publication US20220356163A1, “SMALL MOLECULE INHIBITORS OF Id PROTEINS” (MEMORIAL SLOAN KETTERING CANCER CENTER, priority 2019, published 2022).
“Also recorded” adds a separate entry of the source. Read-outs that look alike come from different tables or passages of the source.

What was measured:
[1] = biological target: T1, NanoLuc-ID1 (Homo sapiens, UniProt P41134); assay: NanoBRET target engagement assay in digitonin-permeabilized 293T cells; assay type: cell-based; conditions: 2 μM tracer, 0-60 μM competitor, 50 μg/mL digitonin
T1 construct: expressed in transfected cells; host or cells: 293T cells, pcDNA3.1, digitonin-permeabilized
T1 sequence (P41134 whole entry): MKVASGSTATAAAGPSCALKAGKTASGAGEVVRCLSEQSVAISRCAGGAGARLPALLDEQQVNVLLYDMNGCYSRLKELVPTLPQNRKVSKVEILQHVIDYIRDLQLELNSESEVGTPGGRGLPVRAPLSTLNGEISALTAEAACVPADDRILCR
Protocol: NanoBRET™ target engagement assay. A N-terminal NanoLuc® luciferase ID1 fusion protein was synthesized by Genewiz (South Plainfield, N.J., USA) into the pUC57 backbone and then cloned into the pcDNA3.1 plasmid with EcoRI-HF and XbaI (both enzymes from New England Biolabs, Ipswich, Mass., USA). The assay was performed essentially as described in the NanoBRET™ TE Intracellular BET BRD Assay kit manual (Promega Corporation, Madison, Wis., USA). Briefly, cells were transfected and after 24 hours were plated onto flat bottom, non-binding surface, white, polystyrene 96-well plates (Corning Incorporated, Kennebunk, Me., USA). The AGX51 tracer was then added ([…]), followed by digitonin (Sigma, St. Louis, Mo., USA) to permeabilize the cells ([…]). The NanoBRET™ Nano-Glo® Substrate (Promega) was then added and readings taken using a GloMax Discover System instrument (Promega). For the competition assays, cells were treated with 2 μM of AGX51 tracer and 0-60 μM of AGX-A or AGX51.
This assay is based on the NanoBRET™ Target Engagement Intracellular BET BRD Assay (Promega). A construct expressing a NanoLuc® luciferase ID1 fusion protein and an AGX51-fluorescent tracer was generated (FIG. 10A). […]

[2] = tested on: choroidal neovascularization; assay: Laser-induced choroidal neovascularization (CNV) model of AMD; assay type: in vivo, mouse
From the text: Mouse mode/s of ocular neovascularization. CNV was induced as previously described. Tobe et al., Am. J. Pathol., 153, 1641-1646 (1998). Briefly, 4-6 week-old female Id1^−/− or Id3^−/− mice and littermate control Id1^+/+ or Id3^+/+ mice (all in C57BL/6 background) had laser-induced rupture of Bruch's membrane at three locations in each eye and after 14 days mice were euthanized, eyes were removed, and choroidal flat mounts were stained with FITC-labeled Griffonia simplicifolia lectin (Vector Laboratories, Burlingame, Calif.) which selectively stains vascular cells (n=12 mice per group). Flat mounts were examined by fluorescence microscopy and the area of each CNV was measured by image analysis with Image-Pro Plus software (Media Cybernetics, Silver Spring, Md.) by an observer masked with respect to experimental groups. In other experiments, wild type 4-6 week-old, female, C57BL/6 mice had rupture of Bruch's membrane in each eye followed by intravitreal injection of 1-30 μg of AGX51 (racemic, E1 or E2) or vehicle in one eye immediately and after 7 days or mice were given twice daily i.p. injections of 500 μg of AGX51 or vehicle for 14 days (n=7-10 mice per group). The area of CNV was measured 14 days after rupture of Bruch's membrane. For Aflibercept and AGX-A treatment experiments, rupture of Bruch's membrane was carried out and then mice were treated with 40 μg of Aflibercept, 10 μg of AGX51E2, 1-5 μg of AGX51, 1-5 μg of AGX-A, DMSO or combinations. The mice were 4-6 week-old female C57BL/6. After 14 days, the mice were euthanized and CNV was measured as described above.

[3] = tested on: HCT116 cells; assay: IC50 in HCT116 cells (FIG. 7C); assay type: cell-based
[4] = tested on: TFK-1; assay: Cholangiocarcinoma cell viability, TFK-1; assay type: cell-based
Protocol: (§1) Cell viability assays. Cell lines were seeded in a 96 well plate (5000 cells per well). After overnight incubation, cells were treated with AGX51 and incubated for 24 hours then MTT reagent (5 mg/mL) was added per well and the cells were incubated for four hours. Following incubation, media was aspirated and 200 μL DMSO was added per well. Absorbance was then measured at 570 nm using a plate reader (Synergy 2, BioTek). Cell growth profiles were determined by seeding 38,000 cells in a 24-well plate, in triplicate for each time point, and counting the cells on days 1, 3 and 5 after seeding, using trypan blue exclusion of dead cells.
(§2) The effects of AGX51 and AGX-A on cholangiocarcinoma cell viability were assessed for the six different cholangiocarcinoma cell lines. The measured IC50 values (in μM) from these studies are provided in Table 2 below, along with the ratio of the AGX51 IC50 to the AGX-A IC50 to aid in comparison.

[5] = tested on: SNU-1079; assay: Cholangiocarcinoma cell viability, SNU-1079; assay type: cell-based
Protocol: as §1, §2

[6] = tested on: SNU-1196; assay: Cholangiocarcinoma cell viability, SNU-1196; assay type: cell-based
Protocol: as §1, §2

[7] = tested on: HUCC-T1; assay: Cholangiocarcinoma cell viability, HUCC-T1; assay type: cell-based
Protocol: as §1, §2

[8] = tested on: EGI-1; assay: Cholangiocarcinoma cell viability, EGI-1; assay type: cell-based
Protocol: as §1, §2

[9] = tested on: WITT; assay: Cholangiocarcinoma cell viability, WITT; assay type: cell-based
Protocol: as §1, §2

CCC(=O)N(CCC(c1ccc2c(c1)OCO2)c1ccccc1OC)Cc1ccccc1 (racemic) [AGX51, N-(3-(benzo[d][1,3]dioxol-5-yl)-3-(2-methoxyphenyl)propyl)-N-benzylpropionamide]
competition with AGX51 tracer [1]: could be competed with AGX51 | CNV area relative to vehicle control ([2]; i.p. 50 μL of 10 mg/mL bid, day 14): reduced CNV area significantly | CNV area ([2]; intravitreal 5 μg, days 1 and 7, p<0.05): effective at significantly reducing CNV | Id1 immunofluorescence in CNV regions ([2]; intravitreal injection): no Id1 positive cells | CNV area relative to vehicle ([2]; twice daily i.p. injections (~30 mg/kg), p<0.05): significantly reduced CNV | CNV area relative to vehicle ([2]; two intravitreal injections of 10 μg (2 h and 7 days), day 14, p<0.05): significantly suppressed CNV | IC50 ([3]; Homo sapiens, HCT-116, HCT116 cells, FIG. 7C): 22.3 µM | IC50 ([4]; TFK-1): 15.7 µM | IC50 [5]: 23.1 µM | IC50 [6]: 28.8 µM | IC50 ([7]; Homo sapiens, HuCCT-1): 14.8 µM | IC50 ([8]; Homo sapiens): 15.7 µM | IC50 [9]: 33.2 µM

COc1ccccc1C(CCNCc1ccccc1)c1ccc(OC(C)C)cc1 (centres unmarked) [AGX-A, N-benzyl-3-(4-isopropoxyphenyl)-3-(2-methoxyphenyl)propan-1-anine]
competition with AGX51 tracer [1]: more efficiently; also recorded: exhibiting greater activity than AGX51; also recorded: worked at lower concentrations than AGX51 | CNV area, AGX-A vs AGX51 ([2]; intravitreal 1 μg dose): performed better than AGX51 | fold reduction in IC50 values vs AGX51 ([3]; cell-based assays, FIGS. 7C-7D (HCT116 and 4T1)): ~4 fold | dose-dependent effect on TFK1 cell viability vs AGX51 ([4]; 24 hour period, FIG. 23): superior anti-cancer potency | (AGX51 IC50)/(AGX-A IC50) ([4]; TFK-1): 1.33 | IC50 ([4]; TFK-1): 11.8 µM | (AGX51 IC50)/(AGX-A IC50) [5]: 3.95 | IC50 [5]: 5.84 µM | (AGX51 IC50)/(AGX-A IC50) [6]: 1.94 | IC50 [6]: 14.8 µM | (AGX51 IC50)/(AGX-A IC50) [7]: 3.33 | IC50 [7]: 4.44 µM | (AGX51 IC50)/(AGX-A IC50) [8]: 3.49 | IC50 [8]: 4.49 µM | (AGX51 IC50)/(AGX-A IC50) [9]: 6.25 | IC50 [9]: 5.32 µM
